Measurements as given in PubChem BioAssay (NCI).
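GI50 is the concentration that inhibits growth by half. TGI denotes the concentration required for complete inhibition of growth.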

Columns and labels:
Assay in all cases: growth of human tumour cells (NCI), 384-well format
SK-OV-3 ovarian = system: SK-OV-3 ovarian
BT-549 breast = system: BT-549 breast
CAKI-1 renal = system: CAKI-1 renal
NCI-H23 lung = system: NCI-H23 lung
OVCAR-5 ovarian = system: OVCAR-5 ovarian
LOX IMVI melanoma = system: LOX IMVI melanoma
COLO 205 colon = system: COLO 205 colon
HS 578T breast = system: HS 578T breast
ACHN renal = system: ACHN renal
SR leukemia = system: SR leukemia
NCI-H322M lung = system: NCI-H322M lung
OVCAR-8 ovarian = system: OVCAR-8 ovarian
HCT-116 colon = system: HCT-116 colon
DU-145 prostate = system: DU-145 prostate
SNB-19 CNS = system: SNB-19 CNS
RPMI-8226 leukemia = system: RPMI-8226 leukemia
A498 renal = system: A498 renal
MALME-3M melanoma = system: MALME-3M melanoma
HCT-15 colon = system: HCT-15 colon
KM12 colon = system: KM12 colon
SF-539 CNS = system: SF-539 CNS
MDA-MB-231 breast = system: MDA-MB-231 breast
RXF 393 renal = system: RXF 393 renal
UACC-257 melanoma = system: UACC-257 melanoma
MCF7 breast = system: MCF7 breast
NCI-H522 lung = system: NCI-H522 lung
U251 glioblastoma = system: U251 glioblastoma
HT29 colon = system: HT29 colon
HOP-92 NSCLC = system: HOP-92 NSCLC
NCI/ADR-RES ovarian = system: NCI/ADR-RES ovarian
SK-MEL-28 melanoma = system: SK-MEL-28 melanoma
NCI-H226 lung = system: NCI-H226 lung
HL-60(TB) leukemia = system: HL-60(TB) leukemia
OVCAR-3 ovarian = system: OVCAR-3 ovarian
EKVX NSCLC = system: EKVX NSCLC
SNB-75 CNS = system: SNB-75 CNS
SK-MEL-5 melanoma = system: SK-MEL-5 melanoma
SN12C renal = system: SN12C renal
MDA-MB-435 melanoma = system: MDA-MB-435 melanoma
SF-295 CNS = system: SF-295 CNS
M14 melanoma = system: M14 melanoma
PC-3 prostate = system: PC-3 prostate
HCC-2998 colon = system: HCC-2998 colon
SF-268 CNS = system: SF-268 CNS
TK-10 renal = system: TK-10 renal
HOP-62 NSCLC = system: HOP-62 NSCLC
NCI-H460 NSCLC = system: NCI-H460 NSCLC
T-47D breast = system: T-47D breast
IGROV1 ovarian = system: IGROV1 ovarian
MOLT-4 leukemia = system: MOLT-4 leukemia
A549 NSCLC = system: A549 NSCLC
UACC-62 melanoma = system: UACC-62 melanoma
OVCAR-4 ovarian = system: OVCAR-4 ovarian
MDA-MB-468 breast = system: MDA-MB-468 breast

## COc1ccc(-c2cc3nccn3c(Nc3ncccc3C(N)=O)n2)cc1OC
SK-OV-3 ovarian
  GI50: 0.571 µM
  TGI: > 100 µM
BT-549 breast
  GI50: 2.26 µM
  TGI: > 100 µM
CAKI-1 renal
  GI50: 0.392 µM
  TGI: > 100 µM
NCI-H23 lung
  GI50: 0.858 µM
  TGI: > 100 µM
OVCAR-5 ovarian
  GI50: 4.46 µM
  TGI: > 100 µM
LOX IMVI melanoma
  GI50: 0.461 µM
  TGI: 4.31 µM
COLO 205 colon
  GI50: 0.522 µM
  TGI: > 100 µM
HS 578T breast
  GI50: 1.31 µM
  TGI: > 100 µM
ACHN renal
  GI50: 0.45 µM
  TGI: 3.75 µM
SR leukemia
  GI50: 0.129 µM
  TGI: 0.301 µM
NCI-H322M lung
  GI50: 2.06 µM
  TGI: > 100 µM
OVCAR-8 ovarian
  GI50: 2.14 µM
  TGI: > 100 µM
HCT-116 colon
  GI50: 0.454 µM
  TGI: 10.9 µM
DU-145 prostate
  GI50: 0.914 µM
  TGI: 12.3 µM
SNB-19 CNS
  GI50: 51.6 µM
  TGI: > 100 µM
RPMI-8226 leukemia
  GI50: 1.62 µM
  TGI: > 100 µM
A498 renal
  GI50: 0.518 µM
  TGI: > 100 µM
MALME-3M melanoma
  GI50: > 100 µM
  TGI: > 100 µM
HCT-15 colon
  GI50: 0.677 µM
  TGI: > 100 µM
KM12 colon
  GI50: 1.73 µM
  TGI: > 100 µM
SF-539 CNS
  GI50: 4.82 µM
  TGI: > 100 µM
MDA-MB-231 breast
  GI50: > 100 µM
  TGI: > 100 µM
RXF 393 renal
  GI50: 2.36 µM
  TGI: 91 µM
UACC-257 melanoma
  GI50: 91.7 µM
  TGI: > 100 µM
MCF7 breast
  GI50: 1.11 µM
  TGI: > 100 µM
NCI-H522 lung
  GI50: 0.587 µM
  TGI: > 100 µM
U251 glioblastoma
  GI50: 7.43 µM
  TGI: > 100 µM
HT29 colon
  GI50: 6.96 µM
  TGI: > 100 µM
HOP-92 NSCLC
  GI50: > 100 µM
  TGI: > 100 µM
NCI/ADR-RES ovarian
  GI50: 1.87 µM
  TGI: > 100 µM
SK-MEL-28 melanoma
  GI50: > 100 µM
  TGI: > 100 µM
NCI-H226 lung
  GI50: 6.52 µM
  TGI: > 100 µM
HL-60(TB) leukemia
  GI50: 1.15 µM
  TGI: 3.05 µM
OVCAR-3 ovarian
  GI50: 2.36 µM
  TGI: > 100 µM
EKVX NSCLC
  GI50: 17.9 µM
  TGI: > 100 µM
SNB-75 CNS
  GI50: > 100 µM
  TGI: > 100 µM
SK-MEL-5 melanoma
  GI50: 0.567 µM
  TGI: > 100 µM
SN12C renal
  GI50: 0.819 µM
  TGI: > 100 µM
MDA-MB-435 melanoma
  GI50: > 100 µM
  TGI: > 100 µM
SF-295 CNS
  GI50: > 100 µM
  TGI: > 100 µM
M14 melanoma
  GI50: > 100 µM
  TGI: > 100 µM
PC-3 prostate
  GI50: 2.17 µM
  TGI: > 100 µM
HCC-2998 colon
  GI50: 46.6 µM
  TGI: > 100 µM
SF-268 CNS
  GI50: 2.02 µM
  TGI: > 100 µM
TK-10 renal
  GI50: 0.692 µM
  TGI: > 100 µM
HOP-62 NSCLC
  GI50: 0.784 µM
  TGI: 71.4 µM
NCI-H460 NSCLC
  GI50: 0.555 µM
  TGI: 12.4 µM
T-47D breast
  GI50: > 100 µM
  TGI: > 100 µM
IGROV1 ovarian
  GI50: 0.666 µM
  TGI: > 100 µM
MOLT-4 leukemia
  GI50: 1.48 µM
  TGI: 5.77 µM
A549 NSCLC
  GI50: 17.9 µM
  TGI: > 100 µM
UACC-62 melanoma
  GI50: 0.675 µM
  TGI: > 100 µM
OVCAR-4 ovarian
  GI50: > 100 µM
  TGI: > 100 µM

## COc1cc2c(cc1-c1c(C)noc1C)ncc1[nH]c(=O)n([C@H](C)c3ccccn3)c12
SK-OV-3 ovarian
  GI50: 0.577 µM
  TGI: 45.5 µM
BT-549 breast
  GI50: 0.504 µM
  TGI: 11.4 µM
CAKI-1 renal
  GI50: 0.479 µM
  TGI: > 100 µM
NCI-H23 lung
  GI50: 1.25 µM
  TGI: > 100 µM
OVCAR-5 ovarian
  GI50: 0.392 µM
  TGI: 10.9 µM
LOX IMVI melanoma
  GI50: 0.245 µM
  TGI: 0.574 µM
COLO 205 colon
  GI50: 0.498 µM
  TGI: 6.27 µM
HS 578T breast
  GI50: 0.342 µM
  TGI: 21.5 µM
ACHN renal
  GI50: 1.61 µM
  TGI: > 100 µM
SR leukemia
  GI50: 0.297 µM
  TGI: 14.3 µM
NCI-H322M lung
  GI50: 0.509 µM
  TGI: 9.51 µM
OVCAR-8 ovarian
  GI50: 0.521 µM
  TGI: 9.6 µM
HCT-116 colon
  GI50: 1.9 µM
  TGI: > 100 µM
DU-145 prostate
  GI50: 8.96 µM
  TGI: > 100 µM
SNB-19 CNS
  GI50: 0.922 µM
  TGI: 63.5 µM
RPMI-8226 leukemia
  GI50: 0.212 µM
  TGI: 0.819 µM
A498 renal
  GI50: 0.693 µM
  TGI: > 100 µM
MALME-3M melanoma
  GI50: 1.91 µM
  TGI: 32.5 µM
HCT-15 colon
  GI50: 0.488 µM
  TGI: 2.8 µM
KM12 colon
  GI50: 1.71 µM
  TGI: > 100 µM
SF-539 CNS
  GI50: 0.829 µM
  TGI: > 100 µM
MDA-MB-231 breast
  GI50: 0.91 µM
  TGI: > 100 µM
RXF 393 renal
  GI50: 8.71 µM
  TGI: > 100 µM
UACC-257 melanoma
  GI50: 0.503 µM
  TGI: 11.6 µM
MCF7 breast
  GI50: 0.269 µM
  TGI: > 100 µM
NCI-H522 lung
  GI50: 0.321 µM
  TGI: 2.41 µM
U251 glioblastoma
  GI50: 3.17 µM
  TGI: > 100 µM
HT29 colon
  GI50: 0.412 µM
  TGI: > 100 µM
HOP-92 NSCLC
  GI50: 11.4 µM
  TGI: > 100 µM
NCI/ADR-RES ovarian
  GI50: 3.05 µM
  TGI: 16.8 µM
SK-MEL-28 melanoma
  GI50: 2.64 µM
  TGI: > 100 µM
NCI-H226 lung
  GI50: 1.31 µM
  TGI: 24.7 µM
HL-60(TB) leukemia
  GI50: 0.144 µM
  TGI: 0.277 µM
OVCAR-3 ovarian
  GI50: 0.421 µM
  TGI: 7.13 µM
EKVX NSCLC
  GI50: 27.7 µM
  TGI: > 100 µM
SNB-75 CNS
  GI50: 18.8 µM
  TGI: > 100 µM
SK-MEL-5 melanoma
  GI50: 0.438 µM
  TGI: 8.69 µM
SN12C renal
  GI50: 0.364 µM
  TGI: > 100 µM
MDA-MB-435 melanoma
  GI50: 2.45 µM
  TGI: 51.2 µM
SF-295 CNS
  GI50: 5.3 µM
  TGI: > 100 µM
M14 melanoma
  GI50: 1.03 µM
  TGI: 33.2 µM
PC-3 prostate
  GI50: 0.743 µM
  TGI: > 100 µM
HCC-2998 colon
  GI50: 0.303 µM
  TGI: 2 µM
SF-268 CNS
  GI50: 8.13 µM
  TGI: > 100 µM
TK-10 renal
  GI50: 0.575 µM
  TGI: 12.4 µM
HOP-62 NSCLC
  GI50: 0.335 µM
  TGI: 2.54 µM
NCI-H460 NSCLC
  GI50: 2.92 µM
  TGI: > 100 µM
T-47D breast
  GI50: 3.1 µM
  TGI: > 100 µM
IGROV1 ovarian
  GI50: 0.584 µM
  TGI: 9.78 µM
MOLT-4 leukemia
  GI50: 0.915 µM
  TGI: 7.74 µM
MDA-MB-468 breast
  GI50: 0.872 µM
  TGI: > 100 µM
A549 NSCLC
  GI50: 2.39 µM
  TGI: > 100 µM
UACC-62 melanoma
  GI50: 0.308 µM
  TGI: > 100 µM
OVCAR-4 ovarian
  GI50: 0.199 µM
  TGI: 0.615 µM
